Data taken from patent EP1289977B1, “TRITERPENOID DERIVATIVES AND THEIR USE AS ANTIPROLIFERATIVE AGENTS” (Univerzita palackeho V Olomouci, priority 2000, dated 2001).
pIC50: −log10 of the molar value.

What was measured:
Type in all cases: cell-based
CEM = experiment: MTT cytotoxicity screening assay, CEM; details: CCRF-CEM, human T-lymphoblastic leukemia, 72 hours, read-out: TCS50
Text: (§1) One of the parameters used as the basis for colorimetric assays is the metabolic activity of viable cells. For example, a microtiter assay which uses the tetrazolium salt MTT is now widely used to quantitate cell proliferation and cytotoxicity [Hajduch M, Mihal V, Minarik J, Fáber E, ? afárová M, Weigl E, Antálek P.: Cytotechnology, 1996,19,243-245]. For instance, this assay is used in drug screening programs and in chemosensitivity testing. Because tetrazolium salts are cleaved only by metabolically active cells, these assays exclusively detect viable cells. In the case of the MTT assay, yellow soluble tetrazolium salt is reduced to a coloured water-insoluble formazan salt. After it is solubilized, the formazan formed can easily and rapidly be quantified in a conventional ELISA plate reader at 570 nm (maximum absorbancy). The quantity of reduced formazan corresponds to the number of vital cells in the culture.
Human T-lymphoblastic leukaemia cell line CEM was used for routine screening of these compounds. […] The cells were maintained in Nunc/Coming 80 cm^2 plastic tissue culture flasks and cultured in cell culture medium (DMEM with 5 g/l glucose, 2mM glutamine, 100 U/ml penicillin, 100 µg/ml streptomycin, 10% foetal calf serum and sodium bicarbonate). Individual compounds were dissolved in 10% dimethylsulfoxide/saline, pH 8.0.
The cell suspensions that were prepared and diluted according to the particular cell type and the expected target cell density (2.500-30.000 cells per well based on cell growth characteristics) were added by pipette (80 µl) into 96/well microtiter plates. Inoculates were allowed a pre-incubation period of 24 hours at 37°C and 5% CO2 for stabilisation. Four-fold dilutions of the intended test concentration were added at time zero in 20 µl aliquots to the microtiter plate wells. Usually, test compounds were evaluated at six 4-fold dilutions. In routine testing, the highest well concentration was 250 µM, but it may differ, depending on the agent. All drug concentrations were examined in duplicate. Incubations of cells with the test compounds lasted for 72 hours at 37°C, in 5% CO2 atmosphere and 100% humidity. At the end of the incubation period, the cells were assayed by using the MTT assay. Ten microliters of the MTT stock solution were pipetted into each well and incubated further for 1-4 hours. […] The optical density (OD) was measured at 540nm with the Labsystem iEMS Reader MF (UK). The tumour cell survival (TCS) was calculated using the following equitation: TCS= (ODdrug exposed well /mean ODcontrol wells) x 100%. The TCS50 value, the drug concentration lethal to 50% of the tumour cells, was calculated from the obtained dose response curves. […]

B16 = experiment: MTT cytotoxicity assay, B16; details: B16, mouse melanoma, 72 hours, read-out: TCS50
Text: as §1, with “culture. […]” for “culture.”
(§2) The cell suspensions that were prepared and diluted according to the particular cell type and the expected target cell density (2.500-30.000 cells per well based on cell growth characteristics) were added by pipette (80 µl) into 96/well microtiter plates. […] Usually, test compounds were evaluated at six 4-fold dilutions. […] The optical density (OD) was measured at 540nm with the Labsystem iEMS Reader MF (UK). […]

B16F = experiment: MTT cytotoxicity assay, B16F; details: mouse melanoma, metastatic, 72 hours, read-out: TCS50
Text: as §1, with “culture. […]” for “culture.”
as §2

SW620 = experiment: MTT cytotoxicity assay, SW620; details: SW-620, SW620, human colon cancer, metastasis, 72 hours, read-out: TCS50
Text: as §1, with “culture. […]” for “culture.”
as §2

U87MG = experiment: MTT cytotoxicity assay, U87MG; details: U-87 MG, human glioblastoma, 72 hours, read-out: TCS50
Text: as §1, with “culture. […]” for “culture.”
as §2

HepG2 = experiment: MTT cytotoxicity assay, HepG2; details: HepG2, human hepatocellular carcinoma, 72 hours, read-out: TCS50
Text: as §1, with “culture. […]” for “culture.”
as §2

A549 = experiment: MTT cytotoxicity assay, A549; details: A549, human lung adenocarcinoma, 72 hours, read-out: TCS50
Text: as §1, with “culture. […]” for “culture.”
as §2

MCF-7 = experiment: MTT cytotoxicity assay, MCF-7; details: MCF7, MCF-7, human breast cancer, estrogen dependent, p53+/+, Rb +/+, 72 hours, read-out: TCS50
Text: as §1, with “culture. […]” for “culture.”
as §2

U20S = experiment: MTT cytotoxicity assay, U20S; details: human osteosarcoma, p53+/-, Rb +/-, 72 hours, read-out: TCS50
Text: as §1, with “culture. […]” for “culture.”
as §2

Saos2 = experiment: MTT cytotoxicity assay, Saos2; details: SAOS-2, Saos2, human osteosarcoma, p53-/-, Rb-/-, 72 hours, read-out: TCS50
Text: as §1, with “culture. […]” for “culture.”
as §2

BT549 = experiment: MTT cytotoxicity assay, BT549; details: BT-549, BT549, human breast cancer, p53mut/mut, 72 hours, read-out: TCS50
Text: as §1, with “culture. […]” for “culture.”
as §2

MDA-MB-238 = experiment: MTT cytotoxicity assay, MDA-MB-238; details: MDA-MB-238, human breast cancer, estrogen independent, p53mut/mut, 72 hours, read-out: TCS50
Text: as §1, with “culture. […]” for “culture.”
as §2

LNCaP = experiment: MTT cytotoxicity assay, LNCaP; details: human prostate cancer, androgen dependent, 72 hours, read-out: TCS50
Text: as §1, with “culture. […]” for “culture.”
as §2

DU145 = experiment: MTT cytotoxicity assay, DU145; details: DU-145, DU145, human prostate cancer, androgen independent, Rb-/-, 72 hours, read-out: TCS50
Text: as §1, with “culture. […]” for “culture.”
as §2

HT-29 = experiment: MTT cytotoxicity assay, HT-29; details: HT-29, human colon cancer, 72 hours, read-out: TCS50
Text: as §1, with “culture. […]” for “culture.”
as §2

OVCAR-3 = experiment: MTT cytotoxicity assay, OVCAR-3; details: OVCAR-3, human ovarian cancer, 72 hours, read-out: TCS50
Text: as §1, with “culture. […]” for “culture.”
as §2

Caco-2 = experiment: MTT cytotoxicity assay, Caco-2; details: Caco-2, human colon cancer, 72 hours, read-out: TCS50
Text: as §1, with “culture. […]” for “culture.”
as §2

MEL-3 = experiment: MTT cytotoxicity assay, MEL-3; details: MEL-3, human melanoma, 72 hours, read-out: TCS50
Text: as §1, with “culture. […]” for “culture.”
as §2

human normal lymphocytes = experiment: MTT cytotoxicity assay, normal lymphocytes; details: Lymphocyte, human normal lymphocytes (non-malignant), 72 hours, read-out: TCS50
Text: as §1, with “culture. […]” for “culture.”
as §2

NIH3T3 = experiment: MTT cytotoxicity assay, NIH3T3; details: NIH3T3, mouse immortalised fibroblasts (non-malignant), 72 hours, read-out: TCS50
Text: as §1, with “culture. […]” for “culture.”
as §2

K562 = experiment: MTT cytotoxicity assay, K562; details: K562, human chronic myelogenous leukemia, 72 hours, read-out: TCS50
Text: as §1, with “culture. […]” for “culture.”
as §2

K562-CdA = experiment: MTT cytotoxicity assay, K562-CdA; details: human chronic myelogenous leukemia, cladrubin resistant, 72 hours, read-out: TCS50
Text: as §1, with “culture. […]” for “culture.”
as §2

K562-GEM = experiment: MTT cytotoxicity assay, K562-GEM; details: human chronic myelogenous leukemia, gemcitabin resistant, 72 hours, read-out: TCS50
Text: as §1, with “culture. […]” for “culture.”
as §2

K562-ARA-C = experiment: MTT cytotoxicity assay, K562-ARA-C; details: human chronic myelogenous leukemia, cytarabin resistant, 72 hours, read-out: TCS50
Text: as §1, with “culture. […]” for “culture.”
as §2

K562-FLUD = experiment: MTT cytotoxicity assay, K562-FLUD; details: human chronic myelogenous leukemia, fludarabin resistant, 72 hours, read-out: TCS50
Text: as §1, with “culture. […]” for “culture.”
as §2

CEM-DNR 1/C2 = experiment: MTT cytotoxicity assay, CEM-DNR 1/C2; details: CEM-DNR 1/C2, human T-lymphoblastic leukemia, daunorubicin resistant, 72 hours, read-out: TCS50
Text: as §1, with “culture. […]” for “culture.”
as §2

CEM-DNR bulk = experiment: MTT cytotoxicity assay, CEM-DNR bulk; details: human T-lymphoblastic leukemia, daunorubicin resistant, 72 hours, read-out: TCS50
Text: as §1, with “culture. […]” for “culture.”
as §2

CEM-VCR 1/F3 = experiment: MTT cytotoxicity assay, CEM-VCR 1/F3; details: CEM-VCR 1/F3, human T-lymphoblastic leukemia, vincristin resistant, 72 hours, read-out: TCS50
Text: as §1, with “culture. […]” for “culture.”
as §2

CEM-VCR 3/D5 = experiment: MTT cytotoxicity assay, CEM-VCR 3/D5; details: CEM-VCR 3/D5, human T-lymphoblastic leukemia, vincristin resistant, 72 hours, read-out: TCS50
Text: as §1, with “culture. […]” for “culture.”
as §2

CEM-VCR bulk = experiment: MTT cytotoxicity assay, CEM-VCR bulk; details: human T-lymphoblastic leukemia, vincristin resistant, 72 hours, read-out: TCS50
Text: as §1, with “culture. […]” for “culture.”
as §2

SMILES | pIC50 (CEM) | pIC50 (B16) | pIC50 (B16F) | pIC50 (SW620) | pIC50 (U87MG) | pIC50 (HepG2) | pIC50 (A549) | pIC50 (MCF-7) | pIC50 (U20S) | pIC50 (Saos2) | pIC50 (BT549) | pIC50 (MDA-MB-238) | pIC50 (LNCaP) | pIC50 (DU145) | pIC50 (HT-29) | pIC50 (OVCAR-3) | pIC50 (Caco-2) | pIC50 (MEL-3) | pIC50 (human normal lymphocytes) | pIC50 (NIH3T3) | also measured
CC1(C)CC[C@]23CC[C@]4(C)[C@H](CC[C@@H]5[C@@]6(C)CC(F)(F)C(=O)C(C)(C)[C@@H]6CC[C@]54C)[C@H]2[C@H]1OC3 [III.14, 19β,28β-epoxy-2,2-difluoro-18α-oleanan-3-one] | 3.77 |  |  |  |  |  |  |  |  |  |  |  |  |  |  |  |  |  |  |  | 
CC1(C)CC[C@]23CC[C@]4(C)[C@H](CC[C@@H]5[C@@]6(C)CC(Br)C(=O)C(C)(C)[C@@H]6CC[C@]54C)[C@H]2[C@H]1OC3 (stereo partly drawn) [III.3, 2-brom-3-oxo-19β,28β-epoxy-18α-oleanan] | 6.00 | 5.68 | 5.33 | 5.92 | 5.29 | 5.77 | 6.00 | 5.64 | 5.82 | 5.74 | 5.70 | 5.85 | 5.96 | 6.10 | 5.80 | 6.00 | 5.52 | 5.89 | 4.89 | 5.14 | pIC50 (K562): 6.70; pIC50 (K562-CdA): 6.52; pIC50 (K562-GEM): 6.05; pIC50 (K562-ARA-C): 6.22; pIC50 (K562-FLUD): 6.40; pIC50 (CEM-DNR 1/C2): 6.22; pIC50 (CEM-DNR bulk): 5.96; pIC50 (CEM-VCR 1/F3): 5.48; pIC50 (CEM-VCR 3/D5): 5.54; pIC50 (CEM-VCR bulk): 5.60
C=C(C)[C@@H]1CC[C@]2(C(=O)O)CC[C@]3(C)[C@H](CC[C@@H]4[C@@]5(C)CC[C@H](O)C(C)(C)[C@@H]5CC[C@]43C)[C@@H]12 [Betulinic Acid, betulinic acid, reference compound] | 3.60 | 4.44 | 5.34 | 3.60 | 3.60 | 5.44 | 3.63 | 3.71 | 3.60 | 3.60 | 3.60 | 3.71 | 3.61 | 3.62 | 3.60 | 3.79 | 4.70 | 5.57 | 3.60 | 3.60 | pIC50 (K562): 3.60; pIC50 (K562-CdA): 3.60; pIC50 (K562-ARA-C): 3.60; pIC50 (K562-FLUD): 3.60; pIC50 (CEM-DNR 1/C2): 3.60; pIC50 (CEM-DNR bulk): 3.60; pIC50 (CEM-VCR 1/F3): 4.72; pIC50 (CEM-VCR 3/D5): 4.62; pIC50 (CEM-VCR bulk): 4.16
CC1(C)CC[C@]23CC[C@]4(C)[C@H](CC[C@@H]5[C@@]6(C)CC(N=[N+]=[N-])C(=O)C(C)(C)[C@@H]6CC[C@]54C)[C@H]2[C@H]1OC3 (stereo partly drawn) [III.10, 2-azido-3-oxo-19β,28β-epoxy-18α-oleanan] | 4.89 |  |  |  |  |  |  |  |  |  |  |  |  |  |  |  |  |  |  |  | 
